Source: PubChem BioAssay (NCI)
Values joined by “and” are separate entries in the source; they are usually repeats but may differ in a detail not shown here. Equal entries are not always repeated.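 Interpolation was linear, between the two tested concentrations surrounding the appropriate level; five concentrations were tested over 48 hours in 96-well plates. GI50 is the concentration that inhibits growth by half. At the TGI there is no net growth.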

Experiments:
Assay in all cases: NCI-60 cell line screen, 48 h
[1] = tested on: HOP-62 NSCLC
[2] = tested on: COLO 205 colon
[3] = tested on: SK-MEL-2 melanoma
[4] = tested on: HCC-2998 colon
[5] = tested on: SK-MEL-28 melanoma
[6] = tested on: NCI-H226 lung
[7] = tested on: NCI-H23 lung
[8] = tested on: HL-60(TB) leukemia

Compound	GI50 [1]	TGI [1]	GI50 [2]	TGI [2]	GI50 [3]	TGI [3]	GI50 [4]	TGI [4]	GI50 [5]	TGI [5]	GI50 [6]	TGI [6]	GI50 [7]	TGI [7]	GI50 [8]	TGI [8]
Cn1c2ccccc2c(=Nc2ccccc2)c2c3ccccc3[nH]c21	1.14 µM	2.42 µM	4.53 µM	18.8 µM	3.78 µM	> 100 µM	3.23 µM	46.4 µM	2.3 µM	6.17 µM	0.615 µM	2 µM	2.73 µM	20.4 µM		
Cc1ccc(Cl)cc1Nc1nc(C(F)(F)F)ccc1C(=O)Nc1cccc(C(F)(F)F)c1	2.69 µM	10.3 µM	1.72 µM	3.36 µM	2.45 µM	6.58 µM	1.78 µM	4.46 µM	4.55 µM	18.3 µM	6 µM	25.5 µM	2.63 µM	11.9 µM	3.61 µM	10.5 µM
Nc1ccc(-c2nc3ccc4[nH]ncc4c3c3c2CCCC3)cc1F	1.67 µM	16.9 µM	1.42 µM	6.77 µM	1.27 µM	6.19 µM	3.04 µM	12.3 µM	1.81 µM	6.86 µM	0.686 µM	5.5 µM	1.54 µM	7.96 µM	1.24 µM	3.42 µM
O=C(O)c1c(O)c2cc(Br)ccc2oc1=O		> 100 µM		> 100 µM		> 100 µM		> 100 µM		> 100 µM		> 100 µM		> 100 µM		> 100 µM
O=C1NC(=O)/C(=C/C=C/c2ccccc2)S1	1.37 µM	33.1 µM	14.4 µM	> 48.3 µM	24.4 µM	> 79.3 µM	1.95 µM	11.1 µM	15.5 µM	36 µM	14 µM	> 80.8 µM	1.74 µM	> 41.4 µM	1.27 µM	9.58 µM
COc1ccc(SC2c3cc(OC)c(OC)cc3Oc3nc(N)c(C#N)c(N)c32)cc1 (configuration not stated)	1.7 µM	3.09 µM	1.29 µM	2.65 µM	1.36 µM	2.8 µM	1.72 µM	3.12 µM	1.47 µM	2.91 µM	1.37 µM	2.68 µM	1.45 µM	3.01 µM		
CC1(C)N=C(N)N=C(N)N1c1cccc(C#N)c1	16.6 µM	> 100 µM	31 µM	> 100 µM	8.99 µM	> 100 µM	7.11 µM	> 100 µM	48.8 µM	> 100 µM	7.07 µM	> 100 µM	5.32 µM	> 100 µM	3.46 µM	> 100 µM
Nc1[nH]c(=O)ncc1F		> 100 µM		> 100 µM		> 100 µM		> 100 µM		> 100 µM		> 100 µM		> 100 µM		> 100 µM
C[C@]12O[C@H](C[C@]1(O)CO)n1c3ccccc3c3c4c(c5c6ccccc6n2c5c31)CNC4=O	0.0499 µM and 0.0664 µM	1.25 µM and 1.07 µM	0.0916 µM and 0.129 µM	0.5 µM and 0.87 µM	0.0196 µM and < 0.0117 µM	3.73 µM and 1.78 µM	0.33 µM and 0.237 µM	2.5 µM and 2.96 µM	0.0851 µM and 0.0854 µM	1.12 µM and 1.36 µM	0.267 µM and 0.272 µM	1.79 µM and 2.05 µM	0.0843 µM and 0.189 µM	2.32 µM and 2.63 µM	0.233 µM and 0.0928 µM	> 2.31 µM and 1.23 µM
COc1ccc(C2OC(=O)c3c2ccc2ccccc32)c(C)c1 (configuration not stated)		50 µM		21.9 µM		7.52 µM		3.34 µM		> 100 µM		67.6 µM		> 100 µM		5.38 µM
O=C(NCc1cccnc1)/C(=C\c1ccc(Br)cc1)S(=O)(=O)c1ccccc1	1.64 µM	3.63 µM	1.22 µM	2.65 µM	1.43 µM	3.03 µM	1.51 µM	3 µM	1.11 µM	2.55 µM	1.29 µM	2.67 µM	0.935 µM	2.3 µM	0.345 µM	2.05 µM
C=C(CN1CCN(c2ccccc2OC)CC1)c1ccc(C(=O)Nc2ccccc2N)cc1	3.27 µM	> 50 µM	8.31 µM	37.2 µM	12.6 µM	37.9 µM	0.27 µM	0.452 µM	2.14 µM	> 50 µM			0.447 µM	3.24 µM	1.81 µM	> 50 µM
COc1ccc(-c2nn(-c3cccc(Cl)c3)cc2C=C(C#N)C#N)cc1	2.59 µM	6.04 µM	4.04 µM	10.5 µM	2.37 µM	4.83 µM	3.67 µM	14 µM	2.35 µM	5.84 µM	2.74 µM	11.8 µM	2.68 µM	7.66 µM	2.39 µM	6.37 µM
S=c1nc[nH]c2c1ncn2Cc1ccco1		> 100 µM		> 100 µM		> 100 µM		> 100 µM		> 100 µM		> 100 µM		> 100 µM		
O=C(/C=C/c1ccc(C(F)(F)F)cc1)c1ccc(Nc2nc(NCCO)nc(NCCO)n2)cc1	2.42 µM	7.99 µM	2.05 µM	4.22 µM			3.25 µM	11.2 µM	3.45 µM	13 µM	2.62 µM	9.65 µM	3.85 µM	17.4 µM	2.97 µM	10.3 µM
COc1ccc(-c2oc(=O)ccc2C#Cc2cc(OC)c(OC)c(OC)c2)cc1O	18.5 µM	87.4 µM	89.5 µM	> 100 µM	28 µM	> 100 µM			37.7 µM	> 100 µM	50.5 µM	> 100 µM	22.3 µM	81.2 µM	8.96 µM	35.7 µM
O=C1c2ccccc2C(=O)c2c1ccc(C(Br)Br)c2[N+](=O)[O-]	1.42 µM	2.99 µM			1.91 µM	4.09 µM	2.08 µM	4.6 µM	2.63 µM	6.56 µM	0.727 µM	2.62 µM	1.6 µM	4.34 µM	1.87 µM	4.22 µM
